Results as given in ChEMBL document CHEMBL4396940, “Synthesis and biological evaluation of 4-(piperid-3-yl)amino substituted 6-pyridylquinazolines as potent PI3Kδ inhibitors” (Bioorg Med Chem, 2019).

Assays:
[1] = system: Ramos; assay: Antiproliferative activity against human Ramos cells by MTT assay; type: functional, cell-based
[2] = system: Raji; assay: Antiproliferative activity against human Raji cells by MTT assay; type: functional, cell-based
[3] = system: HCT-116; assay: cells; settings: Homo sapiens
Description: Antiproliferative activity against human HCT116 cells by MTT assay

[4] = system: MCF7; assay: cells; settings: Homo sapiens
Description: Antiproliferative activity against human MCF7 cells by MTT assay

[5] = target: T1, Phosphatidylinositol 4,5-bisphosphate 3-kinase catalytic subunit delta isoform (Homo sapiens, UniProt O00329); assay: Inhibition of PI3K delta (unknown origin) using phosphatidyl inositol as substrate measured after 60 mins in presence of ATP by Kinase-Glo Plus reagent-based luminescence assay
T1 sequence (O00329 whole entry): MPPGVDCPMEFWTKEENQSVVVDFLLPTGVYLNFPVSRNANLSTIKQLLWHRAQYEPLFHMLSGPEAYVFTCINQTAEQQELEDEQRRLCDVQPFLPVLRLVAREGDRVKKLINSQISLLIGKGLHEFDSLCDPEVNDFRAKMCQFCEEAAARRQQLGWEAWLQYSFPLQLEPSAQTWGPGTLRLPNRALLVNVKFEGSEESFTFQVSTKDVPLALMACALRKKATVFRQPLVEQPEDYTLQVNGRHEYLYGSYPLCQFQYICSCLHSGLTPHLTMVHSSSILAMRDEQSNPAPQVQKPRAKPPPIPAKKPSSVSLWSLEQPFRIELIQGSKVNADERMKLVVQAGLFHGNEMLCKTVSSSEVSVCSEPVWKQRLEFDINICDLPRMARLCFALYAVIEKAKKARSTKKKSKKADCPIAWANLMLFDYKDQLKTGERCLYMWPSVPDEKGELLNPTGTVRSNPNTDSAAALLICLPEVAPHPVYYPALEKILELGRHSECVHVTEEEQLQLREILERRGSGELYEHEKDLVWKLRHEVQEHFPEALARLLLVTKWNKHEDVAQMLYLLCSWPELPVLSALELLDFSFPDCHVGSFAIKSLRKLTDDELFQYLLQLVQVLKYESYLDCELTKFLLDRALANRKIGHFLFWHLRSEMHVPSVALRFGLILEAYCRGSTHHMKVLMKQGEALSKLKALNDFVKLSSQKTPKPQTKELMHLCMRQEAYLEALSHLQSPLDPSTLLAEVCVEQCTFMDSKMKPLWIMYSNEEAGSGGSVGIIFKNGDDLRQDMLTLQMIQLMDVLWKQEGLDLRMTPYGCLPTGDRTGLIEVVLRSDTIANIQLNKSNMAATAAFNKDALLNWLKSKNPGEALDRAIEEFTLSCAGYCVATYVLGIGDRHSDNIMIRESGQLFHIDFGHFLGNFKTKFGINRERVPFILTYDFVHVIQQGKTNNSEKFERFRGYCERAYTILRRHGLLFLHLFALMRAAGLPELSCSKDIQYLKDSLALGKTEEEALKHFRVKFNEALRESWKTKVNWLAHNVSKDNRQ

[6] = system: SU-DHL-6; assay: Antiproliferative activity against human SUDHL6 cells by MTT assay; type: functional, cell-based
[7] = target: Phosphatidylinositol 4,5-bisphosphate 3-kinase catalytic subunit alpha isoform (Homo sapiens, UniProt P42336); assay: Inhibition of PI3K alpha (unknown origin) using phosphatidyl inositol as substrate measured after 60 mins in presence of ATP by Kinase-Glo Plus reagent-based luminescence assay
[8] = target: Phosphatidylinositol 4,5-bisphosphate 3-kinase catalytic subunit beta isoform (Homo sapiens, UniProt P42338); assay: Inhibition of PI3K beta (unknown origin) using phosphatidyl inositol as substrate measured after 60 mins in presence of ATP by Kinase-Glo Plus reagent-based luminescence assay
[9] = target: Phosphatidylinositol 4,5-bisphosphate 3-kinase catalytic subunit gamma isoform (Homo sapiens, UniProt P48736); assay: Inhibition of PI3K gamma (unknown origin) using phosphatidyl inositol as substrate measured after 60 mins in presence of ATP by Kinase-Glo Plus reagent-based luminescence assay
[10] = target: T1, Phosphatidylinositol 4,5-bisphosphate 3-kinase catalytic subunit delta isoform; assay: Inhibition of PI3K delta (unknown origin)
[11] = target: T2, Phosphatidylinositol 4,5-bisphosphate 3-kinase catalytic subunit delta isoform (Homo sapiens) (UniProt O00329); assay: Inhibition of PI3K delta in human SUDHL6 cells assessed as reduction in AKT phosphorylation at S473 measured after 8 hrs by Western blot analysis; type: cell-based
T2 sequence (whole entry): T1 sequence (O00329 whole entry)

Phosphatidylinositol 4,5-bisphosphate 3-kinase catalytic subunit beta isoform, sequence (P42338 whole entry, canonical isoform): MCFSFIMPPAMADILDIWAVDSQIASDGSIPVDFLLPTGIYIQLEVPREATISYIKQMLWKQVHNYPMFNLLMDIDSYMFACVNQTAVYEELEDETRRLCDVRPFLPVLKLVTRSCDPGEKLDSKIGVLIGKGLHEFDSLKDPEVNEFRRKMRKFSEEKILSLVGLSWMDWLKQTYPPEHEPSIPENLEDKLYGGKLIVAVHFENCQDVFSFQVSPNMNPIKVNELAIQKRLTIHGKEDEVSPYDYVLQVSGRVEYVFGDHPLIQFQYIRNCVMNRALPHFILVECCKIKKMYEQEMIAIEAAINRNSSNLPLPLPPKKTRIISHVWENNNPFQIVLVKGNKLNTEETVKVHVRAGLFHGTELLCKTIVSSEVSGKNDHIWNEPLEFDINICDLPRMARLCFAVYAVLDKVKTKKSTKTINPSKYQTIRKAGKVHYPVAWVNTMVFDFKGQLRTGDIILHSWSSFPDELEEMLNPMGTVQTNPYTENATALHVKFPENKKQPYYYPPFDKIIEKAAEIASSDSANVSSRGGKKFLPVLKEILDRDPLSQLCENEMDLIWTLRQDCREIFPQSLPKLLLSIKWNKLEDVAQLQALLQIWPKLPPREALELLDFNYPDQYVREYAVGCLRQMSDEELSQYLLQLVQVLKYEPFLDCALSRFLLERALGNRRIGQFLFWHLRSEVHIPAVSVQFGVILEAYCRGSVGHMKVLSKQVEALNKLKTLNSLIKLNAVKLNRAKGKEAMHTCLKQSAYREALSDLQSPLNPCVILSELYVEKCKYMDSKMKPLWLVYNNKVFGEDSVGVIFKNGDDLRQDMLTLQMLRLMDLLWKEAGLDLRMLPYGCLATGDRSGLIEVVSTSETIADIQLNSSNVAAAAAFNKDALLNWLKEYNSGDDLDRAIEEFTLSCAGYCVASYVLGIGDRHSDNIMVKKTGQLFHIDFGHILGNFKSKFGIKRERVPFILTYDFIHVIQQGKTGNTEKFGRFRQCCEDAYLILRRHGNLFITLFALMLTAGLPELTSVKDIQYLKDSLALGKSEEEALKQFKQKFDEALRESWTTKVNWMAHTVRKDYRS
Phosphatidylinositol 4,5-bisphosphate 3-kinase catalytic subunit gamma isoform, sequence (P48736 whole entry, canonical isoform): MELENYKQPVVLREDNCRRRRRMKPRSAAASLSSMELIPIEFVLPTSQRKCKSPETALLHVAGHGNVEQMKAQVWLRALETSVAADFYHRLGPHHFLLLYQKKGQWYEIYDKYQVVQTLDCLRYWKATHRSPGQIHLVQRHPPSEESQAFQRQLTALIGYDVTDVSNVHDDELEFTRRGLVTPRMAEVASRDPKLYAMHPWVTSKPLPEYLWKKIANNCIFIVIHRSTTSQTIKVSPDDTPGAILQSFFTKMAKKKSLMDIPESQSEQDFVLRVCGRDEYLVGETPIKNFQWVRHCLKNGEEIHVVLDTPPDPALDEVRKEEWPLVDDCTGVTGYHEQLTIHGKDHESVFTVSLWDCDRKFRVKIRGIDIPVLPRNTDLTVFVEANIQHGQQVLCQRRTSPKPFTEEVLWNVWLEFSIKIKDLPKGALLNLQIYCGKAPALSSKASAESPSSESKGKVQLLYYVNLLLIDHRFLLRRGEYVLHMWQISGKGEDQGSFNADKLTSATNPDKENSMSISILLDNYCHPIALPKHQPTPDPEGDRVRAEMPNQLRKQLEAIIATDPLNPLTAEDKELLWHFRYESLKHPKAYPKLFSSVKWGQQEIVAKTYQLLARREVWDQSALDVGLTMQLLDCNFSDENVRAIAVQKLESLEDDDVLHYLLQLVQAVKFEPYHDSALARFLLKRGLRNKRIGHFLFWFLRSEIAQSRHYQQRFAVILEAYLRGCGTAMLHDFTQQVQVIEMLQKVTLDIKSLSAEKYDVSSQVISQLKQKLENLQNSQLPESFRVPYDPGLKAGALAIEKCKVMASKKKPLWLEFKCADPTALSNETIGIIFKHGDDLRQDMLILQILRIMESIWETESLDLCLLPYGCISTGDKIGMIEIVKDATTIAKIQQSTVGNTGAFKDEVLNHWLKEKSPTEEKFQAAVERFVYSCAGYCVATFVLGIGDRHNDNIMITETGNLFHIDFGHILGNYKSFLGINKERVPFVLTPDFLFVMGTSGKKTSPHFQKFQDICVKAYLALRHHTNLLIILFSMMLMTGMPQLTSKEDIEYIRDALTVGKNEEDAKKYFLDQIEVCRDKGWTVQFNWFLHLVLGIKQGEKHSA
Phosphatidylinositol 4,5-bisphosphate 3-kinase catalytic subunit alpha isoform, sequence (P42336 whole entry, canonical isoform): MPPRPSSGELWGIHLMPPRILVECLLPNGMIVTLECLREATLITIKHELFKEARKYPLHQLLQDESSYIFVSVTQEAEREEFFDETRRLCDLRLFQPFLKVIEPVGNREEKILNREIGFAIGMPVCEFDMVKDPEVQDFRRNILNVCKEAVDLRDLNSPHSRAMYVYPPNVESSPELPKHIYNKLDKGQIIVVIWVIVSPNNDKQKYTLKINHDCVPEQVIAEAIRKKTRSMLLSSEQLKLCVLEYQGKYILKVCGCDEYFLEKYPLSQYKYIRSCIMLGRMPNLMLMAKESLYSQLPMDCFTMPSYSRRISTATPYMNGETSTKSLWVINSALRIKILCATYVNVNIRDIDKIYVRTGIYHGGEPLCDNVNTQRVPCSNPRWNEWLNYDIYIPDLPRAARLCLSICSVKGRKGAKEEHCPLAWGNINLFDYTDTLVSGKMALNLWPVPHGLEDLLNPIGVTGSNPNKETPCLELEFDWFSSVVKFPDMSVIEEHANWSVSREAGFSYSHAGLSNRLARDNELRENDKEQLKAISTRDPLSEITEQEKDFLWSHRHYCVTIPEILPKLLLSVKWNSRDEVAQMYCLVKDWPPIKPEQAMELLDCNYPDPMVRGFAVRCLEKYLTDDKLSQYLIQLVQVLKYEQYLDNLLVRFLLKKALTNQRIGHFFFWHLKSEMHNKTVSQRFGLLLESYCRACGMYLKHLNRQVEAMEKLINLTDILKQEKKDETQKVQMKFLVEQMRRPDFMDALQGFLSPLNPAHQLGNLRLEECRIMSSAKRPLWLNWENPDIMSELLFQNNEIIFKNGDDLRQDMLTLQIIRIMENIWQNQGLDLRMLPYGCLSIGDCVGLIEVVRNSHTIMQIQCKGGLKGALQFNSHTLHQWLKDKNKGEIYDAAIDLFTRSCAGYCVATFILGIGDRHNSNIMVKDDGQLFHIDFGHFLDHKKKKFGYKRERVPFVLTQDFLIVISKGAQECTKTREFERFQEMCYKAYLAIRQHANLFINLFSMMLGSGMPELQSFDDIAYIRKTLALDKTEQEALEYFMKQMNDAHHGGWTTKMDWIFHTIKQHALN

Row | Structure (SMILES) | IC50 [1] [nM] | IC50 [2] [nM] | IC50 [3] [nM] | IC50 [4] [nM] | IC50 [5] [nM] | IC50 [6] [nM] | other results
1 | Cn1c(=O)n(-c2ccc(C(C)(C)C#N)cc2)c2c3cc(-c4cnc5ccccc5c4)ccc3ncc21 [DACTOLISIB] | 400 | 520 | 300 | 200 | – | – | –
2 | CCOC(=O)CN1CCC[C@H](Nc2ncnc3ccc(-c4cnc(OC)c(C(F)(F)F)c4)cc23)C1 | – | – | – | – | 6.8 | 230 | –
3 | COc1ncc(-c2ccc3ncnc(N[C@H]4CCCN(C(=O)CCl)C4)c3c2)cc1C#N | – | – | – | – | 8.9 | 380 | –
4 | CC[C@H](Nc1ncnc2[nH]cnc12)c1nc2cccc(F)c2c(=O)n1-c1ccccc1 [IDELALISIB] | > 10000 | > 10000 | > 10000 | > 10000 | – | 33 | –
5 | CCOC(=O)CN1CCC[C@H](Nc2ncnc3ccc(-c4cnc(OC)c(C#N)c4)cc23)C1 | – | – | – | – | 3.2 | 500 | –
6 | COc1ncc(-c2ccc3ncnc(N[C@H]4CCCN(C(=O)C5CCN(C)CC5)C4)c3c2)cc1C#N | – | – | – | – | 9.4 | 420 | –
7 | COc1ncc(-c2ccc3ncnc(N[C@H]4CCCN(C(=O)C5CCNCC5)C4)c3c2)cc1C#N | – | – | – | – | 2.5 | 2440 | –
8 | COc1ncc(-c2ccc3ncnc(N[C@H]4CCCN(C(=O)CN(C)C)C4)c3c2)cc1C#N | > 10000 | > 10000 | > 10000 | > 10000 | 1.3 | 160 | IC50 [7]: 21.8 nM; IC50 [8]: 150 nM; IC50 [9]: 250 nM
9 | COc1ncc(-c2ccc3ncnc(N[C@H]4CCCN(C(=O)CCBr)C4)c3c2)cc1C#N | – | – | – | – | 14.3 | 15 | –
10 | COc1ncc(-c2ccc3ncnc(N[C@H]4CCCN(C(=O)C(F)(F)F)C4)c3c2)cc1C#N | – | – | – | – | 3.2 | 210 | –
11 | COc1ncc(-c2ccc3ncnc(O[C@H]4CCN(C(=O)C5CCOCC5)C4)c3c2)cc1C#N | – | – | – | – | – | – | IC50 [10]: 4.9 nM
12 | COc1ncc(-c2ccc3ncnc(N[C@H]4CCCN(C(=O)c5cccnc5)C4)c3c2)cc1C#N | > 10000 | > 10000 | > 10000 | > 10000 | 0.7 | 120 | IC50 [7]: 120 nM; IC50 [8]: 9.1 nM; IC50 [9]: 2 nM; inhibition [11]: Dose-dependent effect
13 | COc1ncc(-c2ccc3ncnc(N[C@H]4CCCN(C(=O)[C@H](C)N)C4)c3c2)cc1C#N | > 10000 | > 10000 | > 10000 | > 10000 | 3.7 | 440 | IC50 [7]: 18.2 nM; IC50 [8]: 147 nM; IC50 [9]: 211 nM
14 | COc1ncc(-c2ccc3ncnc(N[C@H]4CCCN(C(=O)C(F)(F)F)C4)c3c2)cc1[N+](=O)[O-] | – | – | – | – | 27 | 127000 | –
15 | COc1ncc(-c2ccc3ncnc(N[C@H]4CCCN(C(=O)C5CCOCC5)C4)c3c2)cc1C#N | – | – | – | – | 7.7 | 150 | –
16 | COc1ncc(-c2ccc3ncnc(N[C@H]4CCCN(CCO)C4)c3c2)cc1C#N | – | – | – | – | 4.7 | 2050 | –
